Experimental data reported in ChEMBL document CHEMBL1201862, “PubChem BioAssay data set” (2004).
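Cells were grown in 96-well plates and exposed to each compound for 48 hours at five concentrations; endpoints were interpolated linearly between bracketing concentrations, or set to the highest concentration if not reached. Here, GI50 denotes the concentration required for 50% inhibition of growth.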 Calls of active or inactive are those of the source. Rule as the data show it: active = GI50 up to about 1.1 µM and inactive = higher.

What was measured:
Assay in all cases: NCI-60 cell line screen, 48 h
[1] = test system: A549
[2] = test system: CCRF-CEM
[3] = test system: DLD-1
[4] = test system: HL-60
[5] = test system: M14
[6] = test system: NCI-H23
[7] = test system: NCI-H522
[8] = test system: RPMI-8226
[9] = test system: SF-268
[10] = test system: SK-MEL-28
[11] = test system: SK-OV-3
[12] = test system: SNB-75
[13] = test system: SR
[14] = test system: UACC-257
[15] = test system: UACC-62
[16] = test system: LOX IMVI

SMILES | GI50 [1] | GI50 [2] | GI50 [3] | GI50 [4] | GI50 [5] | GI50 [6] | GI50 [7] | GI50 [8] | GI50 [9] | GI50 [10] | GI50 [11] | GI50 [12] | GI50 [13] | GI50 [14] | GI50 [15] | GI50 [16]
Oc1ccc(-c2n[nH]c(S)n2)cc1 | > 100 µM (inactive) | > 100 µM (inactive) | > 100 µM (inactive) | > 100 µM (inactive) | > 100 µM (inactive) | > 100 µM (inactive) | > 100 µM (inactive) | > 100 µM (inactive) | > 100 µM (inactive) | > 100 µM (inactive) | > 100 µM (inactive) | 87.5 µM (inactive) | > 100 µM (inactive) | > 100 µM (inactive) | > 100 µM (inactive) | 
Cc1ccc(/C=C(\NC(=O)c2ccccc2)c2nc3ccccc3[nH]2)cc1 | 42.7 µM (inactive) |  | 56.8 µM (inactive) | 23.9 µM (inactive) | 50 µM (inactive) | 59.6 µM (inactive) | 42.2 µM (inactive) |  | 60.8 µM (inactive) | 71.9 µM (inactive) |  |  | 37.4 µM (inactive) | 35.3 µM (inactive) | 83.6 µM (inactive) | 
COC(=O)c1cc2c3c(ccc2[nH]1)N(C(=O)c1cc2c4c(ccc2[nH]1)N(C(=O)c1cc2c5c(ccc2[nH]1)N(C(N)=O)CC5)CC4)CC3 | 3 µM (inactive) | 4.58 µM (inactive) | > 21.1 µM (inactive) | 6.62 µM (inactive) | 1.87 µM (inactive) | 2.94 µM (inactive) | 1.61 µM (inactive) | 7.89 µM (inactive) | 2.17 µM (inactive) |  | 2.1 µM (inactive) | 2.11 µM (inactive) | 5.58 µM (inactive) | > 22.6 µM (inactive) | 0.845 µM (active) | 1.88 µM (inactive)
Cc1cc(N(CCC#N)CCC#N)ccc1/C=C1\N=C(c2cc([N+](=O)[O-])ccc2Cl)N(NC(=O)c2ccc(/N=C\c3ccc(N(CCC#N)S(C)(=O)=O)cc3C)cc2)C1=O | > 100 µM (inactive) | 76.4 µM (inactive) | 63.5 µM (inactive) | 61.4 µM (inactive) | 37.9 µM (inactive) | > 100 µM (inactive) | > 100 µM (inactive) | > 100 µM (inactive) | > 100 µM (inactive) | > 100 µM (inactive) | > 100 µM (inactive) | > 100 µM (inactive) |  | 63.4 µM (inactive) | 24.2 µM (inactive) | > 100 µM (inactive)
O=C1C2c3[nH]c4ccccc4c3[C@@H]3CCCCC3C2C(=O)N1c1ccccc1 (stereo partly drawn) | 28.8 µM (inactive) | 26.5 µM (inactive) | 26.2 µM (inactive) | 20.3 µM (inactive) | 15 µM (inactive) | 19.5 µM (inactive) |  | 17.5 µM (inactive) | 18.7 µM (inactive) | 18.2 µM (inactive) | 26.9 µM (inactive) | 27.2 µM (inactive) | 19.8 µM (inactive) |  | 16.6 µM (inactive) | 15.8 µM (inactive)
Cc1cccc(N2C(=O)/C(=C/c3ccc(N(CCC#N)CCC#N)cc3C)N=C2c2cc([N+](=O)[O-])ccc2Cl)c1 | > 100 µM (inactive) | 41.9 µM (inactive) | > 100 µM (inactive) | 74 µM (inactive) | > 100 µM (inactive) | > 100 µM (inactive) | > 100 µM (inactive) | > 100 µM (inactive) | > 100 µM (inactive) | > 100 µM (inactive) | > 100 µM (inactive) | > 100 µM (inactive) | > 100 µM (inactive) | > 100 µM (inactive) | > 100 µM (inactive) | 
CC1(C)O/C(=C\c2ccccc2)C(=O)/C(=C/c2ccccc2)O1 | 23.3 µM (inactive) | 15.8 µM (inactive) | 42.3 µM (inactive) | 9.25 µM (inactive) | 34.4 µM (inactive) | 20 µM (inactive) | 3.4 µM (inactive) | 16.3 µM (inactive) | 57.4 µM (inactive) | 50.4 µM (inactive) | 72.6 µM (inactive) | 31.6 µM (inactive) | 20.5 µM (inactive) | 22.5 µM (inactive) | 25.8 µM (inactive) | 28.6 µM (inactive)
COC(=O)C1CC(C(=O)OC)c2nc3cc(C)ccc3nc21 (stereo not drawn) | > 100 µM (inactive) | > 100 µM (inactive) | > 100 µM (inactive) | > 100 µM (inactive) | > 100 µM (inactive) | > 100 µM (inactive) | > 100 µM (inactive) | > 100 µM (inactive) | > 100 µM (inactive) | > 100 µM (inactive) | > 100 µM (inactive) | > 100 µM (inactive) |  | 58.3 µM (inactive) | > 100 µM (inactive) | > 100 µM (inactive)
CN(C)NC(=O)/C(=C/c1ccc(Cl)cc1)NC(=O)c1ccccc1 | > 100 µM (inactive) | > 100 µM (inactive) | 44.9 µM (inactive) | 34.4 µM (inactive) | > 100 µM (inactive) | > 100 µM (inactive) | 40.7 µM (inactive) | > 100 µM (inactive) | > 100 µM (inactive) | > 100 µM (inactive) | > 100 µM (inactive) | 78 µM (inactive) | 39.9 µM (inactive) | > 100 µM (inactive) | > 100 µM (inactive) | 48.3 µM (inactive)
CN1CC[C@]2(C)c3cc(O)ccc3CC3CCCC1C32C (stereo partly drawn) | > 100 µM (inactive) | > 100 µM (inactive) | > 100 µM (inactive) | > 100 µM (inactive) | > 100 µM (inactive) | > 100 µM (inactive) | > 100 µM (inactive) | > 100 µM (inactive) | > 100 µM (inactive) | > 100 µM (inactive) | > 100 µM (inactive) | 92 µM (inactive) | > 100 µM (inactive) | > 100 µM (inactive) | > 100 µM (inactive) | > 100 µM (inactive)
Cc1ccc2[nH]c3c4c5ccccc5nc-4c[nH]c3c2c1 | 17.2 µM (inactive) | 15.3 µM (inactive) | 15.5 µM (inactive) | 16.6 µM (inactive) | 18.2 µM (inactive) | 10 µM (inactive) | 21.5 µM (inactive) | 18.1 µM (inactive) | 17 µM (inactive) | 17.7 µM (inactive) | 12.6 µM (inactive) | 14.9 µM (inactive) |  | 18.1 µM (inactive) | 16.4 µM (inactive) | 17.2 µM (inactive)
CCOC(=O)C(=O)Nc1ccc([N+](=O)[O-])cc1C#N | > 100 µM (inactive) | > 100 µM (inactive) | > 100 µM (inactive) | > 100 µM (inactive) | > 100 µM (inactive) | > 100 µM (inactive) | > 100 µM (inactive) | > 100 µM (inactive) | > 100 µM (inactive) | > 100 µM (inactive) | > 100 µM (inactive) |  | > 100 µM (inactive) | > 100 µM (inactive) | > 100 µM (inactive) | > 100 µM (inactive)
CCCOc1ccc(/C=C/c2cc(OC)c(OC)c(OC)c2)cc1 | 0.452 µM (active) | 0.324 µM (active) | 0.386 µM (active) | 0.155 µM (active) | 0.252 µM (active) | 0.23 µM (active) | 0.175 µM (active) | 0.456 µM (active) | 0.618 µM (active) | 8.75 µM (inactive) |  | 0.266 µM (active) | 0.548 µM (active) | 0.348 µM (active) | 0.215 µM (active) | 0.445 µM (active)
